Measured values reported in EP0020266A1, “Derivatives of cyano-2-hydroxy-3-benzofurane and benzo(b)thiophene, their preparation and their use in therapy” (ANVAR Agence Nationale de Valorisation de la Recherche, priority 1979, dated 1980).
Several values for one entry are separate records, joined by “and”; a condition that tells them apart may be missing. Equal entries are not always repeated. Where two headings read alike, the source gives them in different places.

Legend:
récepteurs β1-cardiaques = target: T1, récepteurs β1-cardiaques (Cavia porcellus, UniProt H0W3H1); assay: Antagonism of the effects of isoprenaline on the isolated guinea-pig atrium (method of Giudicelli, Schmitt and Boissier); design: species or system cobaye; conditions: for Effet inotrope + de l'isoprénaline Concentration active Après produit: isoprenaline concentration giving a 10 mm increase of the trace amplitude; for Effet chronotrope + de l'isoprénaline Concentration active Après produit: isoprenaline concentration giving an increase of 30 beats per min
T1 construct: sur l'oreillette isolée de cobaye; from tissue; host or cells: isolated guinea-pig atrium
T1 sequence (H0W3H1 1-470): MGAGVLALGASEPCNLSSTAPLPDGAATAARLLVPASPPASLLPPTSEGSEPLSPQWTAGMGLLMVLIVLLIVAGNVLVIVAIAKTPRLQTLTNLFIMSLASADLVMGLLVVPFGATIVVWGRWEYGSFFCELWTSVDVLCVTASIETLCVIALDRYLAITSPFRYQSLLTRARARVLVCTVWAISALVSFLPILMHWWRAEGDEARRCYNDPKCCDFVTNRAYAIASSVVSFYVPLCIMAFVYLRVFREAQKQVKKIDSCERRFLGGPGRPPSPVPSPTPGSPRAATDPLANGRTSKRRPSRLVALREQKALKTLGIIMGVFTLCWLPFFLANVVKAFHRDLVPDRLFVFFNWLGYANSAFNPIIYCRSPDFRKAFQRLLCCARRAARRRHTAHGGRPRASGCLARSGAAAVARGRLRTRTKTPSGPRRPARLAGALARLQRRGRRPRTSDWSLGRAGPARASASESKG
Description: L'activité 8-lytique a été recherchée au niveau des récepteurs β1-cardiaques en déterminant l'antagonisme des effets de l'isoprénaline sur l'oreillette isolée de cobaye, selon la méthode de Giudicelli, Schmitt et Boissier (J. Pharmacol. Exper. Thérapeut., 1969, 168, 116). […]
Afin de ne pas surcharger inutilement les tableaux suivants, seuls les résultats correspondant au composé n° 2 sont indiqués.

[1] = target: T2, récepteurs S2-bronchiques (Cavia porcellus, UniProt Q8K4Z4); assay: Inhibition of the protection given by isoprenaline against serotonin bronchospasm (Konzett and Roessler, modified by Halpern); assay type: in vivo, cobaye; conditions: guinea pig, i.v. 250 µg/kg; for inhibition at 0.25 mg/kg: iv, number in parentheses
T2 construct: a été étudiée chez le cobaye, à raison de cinq animaux par essai; from tissue; host or cells: whole guinea pig (bronchi, in vivo)
T2 sequence (Q8K4Z4 whole entry): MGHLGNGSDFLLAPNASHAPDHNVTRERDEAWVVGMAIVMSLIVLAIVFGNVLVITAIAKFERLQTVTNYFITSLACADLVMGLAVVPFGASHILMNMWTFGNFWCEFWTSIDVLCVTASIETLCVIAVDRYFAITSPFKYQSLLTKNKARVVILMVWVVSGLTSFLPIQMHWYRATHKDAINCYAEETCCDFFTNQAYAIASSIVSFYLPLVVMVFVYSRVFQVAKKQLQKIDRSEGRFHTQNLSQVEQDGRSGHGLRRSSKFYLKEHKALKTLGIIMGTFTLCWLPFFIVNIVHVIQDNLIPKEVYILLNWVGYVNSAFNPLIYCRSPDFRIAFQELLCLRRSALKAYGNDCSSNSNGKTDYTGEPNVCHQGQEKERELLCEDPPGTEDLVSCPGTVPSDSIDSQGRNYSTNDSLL
Description: L'action β2-adrénolytique au niveau bronchique a été étudiée chez le cobaye, à raison de cinq animaux par essai, en recherchant l'inhibition de la protection exercée par l'isoprénaline vis-à-vis du bronchospasme à la sérotonine, selon la méthode de Konzett et Roessler (Arch. Exper. Pathol. Pharmakol., 1940, 195, 71) modifiée par Halpern.
Les composés sont administrés par voie i.v. à la dose de 250 µg/kg.

[2] = dose of product 5.10^-10 mole/cm^3
[3] = dose of product 1.10^-10 mole/cm^3
[4] = dose of product 1.10^-10 mole/cm^3, ratio of active concentrations after and before addition of product

Row | activité β1-stimulante (récepteurs β1-cardiaques; at low concentrations, compared with propranolol, summary of Table II) | Effet inotrope + de l'isoprénaline Concentration active Après produit (récepteurs β1-cardiaques; [3]) | Effet chronotrope + de l'isoprénaline Concentration active Après produit (récepteurs β1-cardiaques; [3]) | Effet chronotrope + de l'isoprénaline Index d'activité (récepteurs β1-cardiaques; [4]) | Effet inotrope + de l'isoprénaline Index d'activité (récepteurs β1-cardiaques; [4]) | antagonisme des effets de l'isoprénaline (effet inotrope + et effet chronotrope +) (récepteurs β1-cardiaques; isolated atrium, single concentration 1.10^-7 g/cm^3, five preparations per product, given as maleate) | Moyenne de l'amplitude Après administration, au bout de 1 min ([1]; 1 min after administration, five animals) | Moyenne de l'amplitude Après administration, au bout de 8 min ([1]; 8 min after administration, five animals) | Moyenne de l'amplitude Après administration, au bout de 16 min ([1]; 16 min after administration, five animals) | Moyenne de l'amplitude Après administration, au bout de 30 min ([1]; 30 min after administration, five animals) | Moyenne de l'amplitude Après administration, au bout de 60 min ([1]; 60 min after administration, five animals) | blocage des récepteurs S2-bronchiques ([1]; compared with propranolol, summary of Table III) | inhibition at 0.25 mg/kg ([1]; 1 min after administration, read-out: pourcentages d'inhibition de l'isoprénaline, 1 min (converted)) [%] | inhibition at 0.25 mg/kg ([1]; 8 min after administration, read-out: pourcentages d'inhibition de l'isoprénaline, 8 min (converted)) [%] | inhibition at 0.25 mg/kg ([1]; 16 min after administration, read-out: pourcentages d'inhibition de l'isoprénaline, 16 min (converted)) [%] | Compound | Effet inotrope + de l'isoprénaline Concentration active Après produit (récepteurs β1-cardiaques; [2]) | Effet chronotrope + de l'isoprénaline Concentration active Après produit (récepteurs β1-cardiaques; [2])
1 |  |  |  |  |  |  |  |  |  |  |  |  |  |  |  | CC(C)NCC(O)COc1cccc2ccccc12 (stereo not drawn) [propranolol, isopropylamino-1 (naphtyl-1 oxy)-3 propanol-2, reference compound] | 5,8.10^-8 | 1,8.10^-7
2 | proche de celle du propranolol | 7,6.10^-8 | 3,8.10^-8 | 7 | 6,5 | suffisamment efficace | 20,4 ± 1,4 | 3,8 ± 2,4 | 0,6 ± 0,6 | 0 | 0 | très fugace | 82 | 15 | 2 | CC(C)(C)NCC(O)COc1c(C#N)sc2ccccc12 (stereo not drawn) [compound 2] |  | 1,5.10^-7 and 1,8.10^-7
